Each molecule was assayed against T1, wtKIT (Homo sapiens, UniProt P10721) (assay: HTRF biochemical assay, wtKIT (phosphorylation of a peptide substrate)). Conditions: Table 4.
T1 construct: 1888289AM in the reaction mixtures
Protocol: Exemplary compounds were tested for ability to inhibit the phosphorylation of a peptide substrate by the tyrosine kinase wt KIT, PDGFRα, or CSF-1R. Assay procedures and results are described below.
Enzyme, substrate, and cofactors (ATP and Mn^2+) are combined in a well of a microtiter plate and incubated for 3 hours at 25° C. At the end of the incubation, the reaction is quenched by the addition of an EDTA-containing buffer.
The substrate used in the CSF-1R and PDGFRα assay is FAM-[…]-CONH2 (FAM is carboxyfluorescein). Peptide should be >95% purity. The substrate for the KIT assay is FAM-[…]-NH2.
• 1. To a well of a 384-wellplate add 5 μL of 2× enzyme buffer (or control). • 2. Add 100 nL of 100× compound. Enzyme and compound may be pre-incubated at this time if desired. • 3. Add 5 μL of 2× substrate buffer. • 4. Incubate plate at 25° C. for 3 hours. • 5. Add 10 uL of anti-phosphotyrosine antibody buffer. • 6. Read plate in BioTek Synergy Reader. Reaction Conditions for wtKIT Assay
• 100 mM HEPES, pH 7.5 0.1% BSA • 0.01% Triton x-100 • 1 mM DTT • 10 mM MnCl2 • 10 μM Sodium Orthovanadate • 10 μM Beta-Glycerophosphate • 400 μM ATP • 1% DMSO (from compound) • 1 μM FAM-[…]-CONH2, 5.0 nM wtKIT Enzyme (1888289AM)* • *Specific activity may vary from lot to lot. Enzyme concentration may need to be adjusted to yield 10-20% conversion of substrate to product.

T1 sequence (P10721 26-976): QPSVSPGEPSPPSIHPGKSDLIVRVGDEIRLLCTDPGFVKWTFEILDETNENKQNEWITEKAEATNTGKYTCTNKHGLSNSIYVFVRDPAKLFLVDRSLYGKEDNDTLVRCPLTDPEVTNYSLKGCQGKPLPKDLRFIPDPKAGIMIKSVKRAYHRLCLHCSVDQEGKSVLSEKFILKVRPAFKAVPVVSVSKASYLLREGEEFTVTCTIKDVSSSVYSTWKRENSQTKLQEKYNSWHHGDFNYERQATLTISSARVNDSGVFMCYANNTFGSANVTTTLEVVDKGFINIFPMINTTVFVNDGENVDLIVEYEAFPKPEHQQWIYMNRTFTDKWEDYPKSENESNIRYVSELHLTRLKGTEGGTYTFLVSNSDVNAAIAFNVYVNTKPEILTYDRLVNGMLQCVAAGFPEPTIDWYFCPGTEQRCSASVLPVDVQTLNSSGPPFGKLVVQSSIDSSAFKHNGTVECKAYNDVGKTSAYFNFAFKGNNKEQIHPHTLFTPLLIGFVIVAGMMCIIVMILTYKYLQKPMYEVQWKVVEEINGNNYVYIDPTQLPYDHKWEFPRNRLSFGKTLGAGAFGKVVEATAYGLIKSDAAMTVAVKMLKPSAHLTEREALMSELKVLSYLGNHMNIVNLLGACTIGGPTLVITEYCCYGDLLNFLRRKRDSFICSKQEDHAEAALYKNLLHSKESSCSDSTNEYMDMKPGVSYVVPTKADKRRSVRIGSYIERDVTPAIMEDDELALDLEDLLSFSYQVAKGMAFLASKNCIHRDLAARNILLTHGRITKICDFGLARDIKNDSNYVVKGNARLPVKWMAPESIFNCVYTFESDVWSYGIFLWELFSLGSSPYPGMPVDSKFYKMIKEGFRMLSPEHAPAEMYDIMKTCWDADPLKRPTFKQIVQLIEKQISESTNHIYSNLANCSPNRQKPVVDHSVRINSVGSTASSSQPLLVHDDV

SMILES | IC50 [nM]
Cc1nc(-c2ccc(C)c(NC(=O)c3cnc4cc(C5CCNC5=O)ccn34)c2)no1 (stereo not drawn) [Compound I-448] | 500 to 5000
Cc1ccc(-c2noc([C@H]3C[C@@H]3F)n2)cc1NC(=O)c1cnc2cc(CCCC(C)(C)O)ccn12 [Compound I-452, N-[5-[5-[(1R,2S)-2-fluorocyclopropyl]-1,2,4-oxadiazol-3-yl]-2-methyl-phenyl]-7-(4-hydroxy-4-methyl-pentyl)imidazo[1,2-a]pyridine-3-carboxamide] | ≤ 50
Cc1ccc(-c2noc([C@H]3C[C@@H]3F)n2)cc1NC(=O)c1cnc2ccc(COCCO)cn12 [Compound I-453, N-[5-[5-[(1R,2S)-2-fluorocyclopropyl]-1,2,4-oxadiazol-3-yl]-2-methyl-phenyl]-6-(2-hydroxyethoxymethyl)imidazo[1,2-a]pyridine-3-carboxamide] | ≤ 50
Cc1ccc(-c2noc([C@H]3C[C@@H]3F)n2)cc1NC(=O)c1cnc2cc(COCCS(C)(=O)=O)ccn12 [Compound I-454, N-[5-[5-[(1R,2S)-2-fluorocyclopropyl]-1,2,4-oxadiazol-3-yl]-2-methyl-phenyl]-7-(2-methylsulfonylethoxymethyl)imidazo[1,2-a]pyridine-3-carboxamide] | ≤ 50
Cc1ccc(-c2noc([C@H]3C[C@@H]3F)n2)cc1NC(=O)c1cnc2ccc(COCC(C)(C)O)cn12 [Compound I-455, N-[5-[5-[(1R,2S)-2-fluorocyclopropyl]-1,2,4-oxadiazol-3-yl]-2-methyl-phenyl]-6-[(2-hydroxy-2-methyl-propoxy)methyl]imidazo[1,2-a]pyridine-3-carboxamide] | ≤ 50
Cc1ccc(-c2noc([C@H]3C[C@@H]3F)n2)cc1NC(=O)c1cnc2cc(C(C)(C)O)ccn12 [Compound I-456] | ≤ 50
Cc1ccc(-c2noc([C@H]3C[C@@H]3F)n2)cc1NC(=O)c1cnc2ccc(C(C)(C)O)cn12 [Compound I-457, N-(5-(5-((1R,2S)-2-fluorocyclopropyl)-1,2,4-oxadiazol-3-yl)-2-methylphenyl)-6-(2-hydroxypropan-2-yl)imidazo[1,2-a]pyridine-3-carboxamide] | ≤ 50
Cc1ccc(-c2noc([C@H]3C[C@@H]3F)n2)cc1NC(=O)c1cnc2cc(CC(C)(C)O)ccn12 [Compound I-460] | 50 to 500
Cc1ccc(-c2noc([C@H]3C[C@@H]3F)n2)cc1NC(=O)c1cnc2cc(C(C)(C)CO)ccn12 [Compound I-464] | 50 to 500
COC(C)(C)COCc1ccn2c(C(=O)Nc3cc(-c4noc([C@H]5C[C@@H]5F)n4)ccc3C)cnc2c1 [Compound I-465] | 50 to 500
Cc1ccc(-c2noc([C@H]3C[C@@H]3F)n2)cc1NC(=O)c1cnn2cc(COCC(C)(C)O)ccc12 [Compound I-466, N-[5-[5-[(1R,2S)-2-fluorocyclopropyl]-1,2,4-oxadiazol-3-yl]-2-methyl-phenyl]-6-[(2-hydroxy-2-methylpropoxy)methyl]pyrazolo[1,5-a]pyridine-3-carboxamide] | ≤ 50
Cc1ccc(-c2noc([C@H]3C[C@@H]3F)n2)cc1NC(=O)c1cnc2cc(CCOCC(C)(C)O)ccn12 [Compound I-467, N-(5-(5-((1R,2S)-2-fluorocyclopropyl)-1,2,4-oxadiazol-3-yl)-2-methylphenyl)-7-(2-(2-hydroxy-2-methylpropoxy)ethyl)imidazo[1,2-a]pyridine-3-carboxamide] | ≤ 50
Cc1ccc(-c2noc([C@H]3C[C@@H]3F)n2)cc1NC(=O)c1cnc2c(F)c(COCCO)ccn12 [Compound I-472] | 50 to 500
Cc1ccc(-c2noc([C@H]3C[C@@H]3F)n2)cc1NC(=O)c1cnc2c(F)c(COCC(C)(C)O)ccn12 [Compound I-473] | 50 to 500
Cc1ccc(-c2noc([C@H]3C[C@@H]3F)n2)cc1NC(=O)c1cnc2cc(CCC(C)(C)CO)ccn12 [Compound I-474, N-[5-[5-[(1R,2S)-2-fluorocyclopropyl]-1,2,4-oxadiazol-3-yl]-2-methyl-phenyl]-7-(4-hydroxy-3,3-dimethyl-butyl)imidazo[1,2-a]pyridine-3-carboxamide] | ≤ 50
Cc1ccc(-c2noc(CC(O)C(F)F)n2)cc1NC(=O)c1cnc2ccccn12 (stereo not drawn) [Compound I-476] | ≤ 50
Cc1ccc(-c2noc([C@H]3C[C@@H]3F)n2)cc1NC(=O)c1cnn2cc(F)ccc12 [Compound I-486, 6-fluoro-N-(5-(5-((1R,2S)-2-fluorocyclopropyl)-1,2,4-oxadiazol-3-yl)-2-methylphenyl)pyrazolo[1,5-a]pyridine-3-carboxamide] | ≤ 50

The next lines start with the values.

IC50 [nM] | SMILES
≤ 50 | Cc1ccc(-c2noc([C@H]3C[C@@H]3F)n2)cc1NC(=O)c1cnc2cc(CCOCCO)ccn12 [Compound I-475, N-[5-[5-[(1R,2S)-2-fluorocyclopropyl]-1,2,4-oxadiazol-3-yl]-2-methyl-phenyl]-7-[2-(2-hydroxyethoxy)ethyl]imidazo[1,2-a]pyridine-3-carboxamide]
≤ 50 | Cc1ccc(-c2noc([C@H]3C[C@@H]3F)n2)cc1NC(=O)c1cnc2cc(COCC(=O)O)ccn12 [Compound I-477, 2-((3-((5-(5-((1R,2S)-2-fluorocyclopropyl)-1,2,4-oxadiazol-3-yl)-2-methylphenyl)carbamoyl)imidazo[1,2-a]pyridin-7-yl)methoxy)acetic acid]
≤ 50 | Cc1ccc(-c2noc([C@H]3C[C@@H]3F)n2)cc1NC(=O)c1cnc2cc(C3CC(O)C3)ccn12 (stereo partly drawn) [Compound I-478, N-[5-[5-[(1R,2S)-2-fluorocyclopropyl]-1,2,4-oxadiazol-3-yl]-2-methyl-phenyl]-7-(3-hydroxycyclobutyl)imidazo[1,2-a]pyridine-3-carboxamide]
≤ 50 | Cc1ccc(-c2noc([C@H]3C[C@@H]3F)n2)cc1NC(=O)c1cnc2cc([C@H]3C[C@@H]3CO)ccn12 [Compound I-480, N-[5-[5-[(1R,2S)-2-fluorocyclopropyl]-1,2,4-oxadiazol-3-yl]-2-methyl-phenyl]-7-[(1S,2S)-2 (hydroxymethyl)cyclopropyl]imidazo[1,2-a]pyridine-3-carboxamide]
≤ 50 | Cc1ccc(-c2noc([C@H]3C[C@@H]3F)n2)cc1NC(=O)c1cnc2cc([C@@H]3C[C@H]3CO)ccn12 [Compound I-481, N-[5-[5-[(1R,2S)-2-fluorocyclopropyl]-1,2,4-oxadiazol-3-yl]-2-methyl-phenyl]-7-[(1R,2R)-2 (hydroxymethyl)cyclopropyl]imidazo[1,2-a]pyridine-3-carboxamide]
50 to 500 | Cc1ccc(-c2noc([C@H]3C[C@@H]3F)n2)cc1NC(=O)c1cnn2cccc(F)c12 [Compound I-487]
≤ 50 | Cc1ccc(-c2noc([C@H]3C[C@@H]3F)n2)cc1NC(=O)c1cnc2cc(COCC3(O)COC3)ccn12 [Compound I-490, N-(5-(5-((1R,2S)-2-fluorocyclopropyl)-1,2,4-oxadiazol-3-yl)-2-methylphenyl)-7-(((3-hydroxyoxetan-3-yl)methoxy)methyl)imidazo[1,2-a]pyridine-3-carboxamide]
50 to 500 | Cc1ccc(-c2noc([C@H]3C[C@@H]3F)n2)cc1NC(=O)c1cnc2cc(C(=O)O)ccn12 [Compound I-491]
≤ 50 | Cc1ccc(-c2noc([C@H]3C[C@@H]3F)n2)cc1NC(=O)c1cnn2ccc(OC(C)C)cc12 [Compound I-493, N-(5-(5-((1R,2S)-2-fluorocyclopropyl)-1,2,4-oxadiazol-3-yl)-2-methylphenyl)-5-isopropoxypyrazolo[1,5-a]pyridine-3-carboxamide]
≤ 50 | Cc1ccc(-c2noc([C@H]3C[C@@H]3F)n2)cc1NC(=O)c1cnn2ccc(C(F)F)cc12 [Compound I-494, 5-(difluoromethyl)-N-(5-(5-((1R,2S)-2-fluorocyclopropyl)-1,2,4-oxadiazol-3-yl)-2-methylphenyl)pyrazolo[1,5-a]pyridine-3-carboxamide]
≤ 50 | Cc1ccc(-c2noc([C@H]3C[C@@H]3F)n2)cc1NC(=O)c1cnn2ccc(F)cc12 [Compound I-496, 5-fluoro-N-[5-[5-[(1R,2S)-2-fluorocyclopropyl]-1,2,4-oxadiazol-3-yl]-2-methylphenyl]pyrazolo[1,5-a]pyridine-3-carboxamide]
≤ 50 | Cc1ccc(-c2noc([C@H]3C[C@@H]3F)n2)cc1NC(=O)c1cnc2cc(COCC(C)(C)O)c(F)cn12 [Compound I-498, 6-fluoro-N-[5-[5-[(1R,2S)-2-fluorocyclopropyl]-1,2,4-oxadiazol-3-yl]-2-methyl-phenyl]-7-[(2-hydroxy-2-methyl-propoxy)methyl]imidazo[1,2-a]pyridine-3-carboxamide]
≤ 50 | Cc1ccc(-c2noc([C@H]3C[C@@H]3F)n2)cc1NC(=O)c1cnc2cc(COCC(O)C(F)F)ccn12 (stereo partly drawn) [Compound I-499, 7-((3,3-difluoro-2-hydroxypropoxy)methyl)-N-(5-(5-((1R,2S)-2-fluorocyclopropyl)-1,2,4-oxadiazol-3-yl)-2-methylphenyl)imidazo[1,2-a]pyridine-3-carboxamide]

— patent publication US20240254119A1 (THIRD HARMONIC BIO, INC., priority 2022, published 2024)
